The values below come from PMC7263640 (Journal of visualized experiments : JoVE, 2019).

In general, EC50 refers to the concentration at which the effect is half-maximal. Read a high EC50 as a need for much substance.

This assay addresses T1, Olfr1377 (Mus musculus, UniProt B2RQ46).
T1 sequence (B2RQ46 1-307): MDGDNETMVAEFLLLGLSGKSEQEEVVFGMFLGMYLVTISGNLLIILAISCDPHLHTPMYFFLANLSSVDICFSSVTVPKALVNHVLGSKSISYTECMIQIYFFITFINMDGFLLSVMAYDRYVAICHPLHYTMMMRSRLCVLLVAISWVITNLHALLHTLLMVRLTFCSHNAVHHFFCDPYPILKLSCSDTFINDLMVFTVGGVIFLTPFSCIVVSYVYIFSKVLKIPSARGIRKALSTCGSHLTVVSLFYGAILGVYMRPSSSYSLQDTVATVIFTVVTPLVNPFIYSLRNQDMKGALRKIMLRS
As to the kind of experiment: GloSensor cAMP luminescence in Hana3A cells, vapor-phase odorant. The class given is cell-based.

Molecule `CC(=O)c1ccccc1` [acetophenone] yielded a concentration for a half-maximal effect (EC50) of 161 µM.
